{
  "source": "patent US12616751B2",
  "about": "“Photosensitizing antibody-fluorophore conjugates” (The USA, as represented by the Secretary, Department of …, priority 2010, dated 2026)",
  "system": "A431 cells",
  "assay": "Cell pellet FLT studies",
  "format": "cell-based",
  "method": "Reagents. […] All other chemicals used were of reagent grade. […] Then the mixture was purified with a Sephadex G50 column (PD-10; GE Healthcare). The protein concentrations were determined with Coomassie Plus protein assay kit (Pierce Biotechnology) by measuring light absorption at 595 nm (8453 Value System; Agilent Technologies). […] The number of IR700 per antibody was approximately 4 for the 1:4.5 reaction conditions. The addition of 0.4% SDS to the sample dissociated the fluorophores from each other, effectively causing dequenching. Quenching efficiency (QE) for a particular conjugation is defined as the fluorescence intensity with SDS divided by fluorescence intensity without SDS. […] Pan-1R700 was kept at 4° C. in the refrigerator as a stock solution. Fluorescence lifetime measurements. FLT experiments were performed with the eXplore OptixTm-MX2 system (ART Advanced Research Technologies, Inc.) (Hutchinson et al., Biophys J 68:1574-82, 1995; Ma et al., Appl Opt 46:1650-7, 2007). […] Lifetime values and lifetime mapping were calculated to fit fluorescence temporal point-spread functions (TPSFs) as single-exponential models with the Fit TPSF tool. […] Power densities were measured with an optical power meter (PM 100, Thorlabs). […] The fluorescence intensities and lifetimes of each sample were determined using the Optix MX2 system at room temperature within a 1.7 ml centrifuge tube. To investigate the effect of PIT using Pan-1R700, the FLT of each sample at the concentration of 50 pg/mL was measured after irradiating the samples at a PIT dose of 0, 2, 4, 8, 15, 30 J/cm2. […] The fluorescence intensities and lifetimes of each sample were then obtained. […] After that, these pellets were gently washed with PBS×1 and fluorescence intensity and lifetime images were obtained. To detect the antigen specific localization of IR700 and to confirm the morphological changes of A431 cells before and after PIT, fluorescence microscopy was performed using Olympus BX61 microscope (Olympus America) equipped with the following filters: a 590-650 nm excitation filter, a 665-740 nm band pass emission filter. […]",
  "data": [
    {"substance": "Pan-IR700: Panitumumab (anti-human EGFR IgG2 MAb) conjugated to IR700; about 3 to 4 IR700 per antibody", "values": [
      {"measurement": "shortening of FLT", "setting": "8 J/cm^2 versus before light exposure", "value": 9.1, "unit": "%"},
      {"measurement": "shortening of FLT", "setting": "15 J/cm^2 versus before light exposure", "value": 10.1, "unit": "%"},
      {"measurement": "shortening of FLT", "setting": "30 J/cm^2 versus before light exposure", "value": 13.1, "unit": "%"}
    ]}
  ]
}
